Where “and” joins values, the source holds several entries; their conditions need not be identical. Equal values may be shown once.
How the values were obtained:
[1] = molecular target: T1, Na+, K+-ATPase from pig kidney microsomal membranes (Sus scrofa, UniProt P05024); assay: Na+,K+-ATPase inhibition assay (residual ATP hydrolysis after 2 h preincubation with inhibitor); format: biochemical; details: for KC (equilibrium constant E•I ↔ E•I*): KC = Fhigh/Flow; for Ki: Ki (dissociation constant of initial binding E + I ↔ E•I), derived from KDiss,high and KC; for percentage of high-affinity component (Fhigh): magnitude of high-affinity component of the inhibition curve; for percentage of low-affinity component (Flow): magnitude of low-affinity component of the inhibition curve; for ratio of KDiss,high values α-isomer:β-isomer: stereoselectivity, α:β of the same pair;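 as to all read-outs here: enzyme preincubated with inhibitor in 40 mM Tris pH 7.0 containing 3 mM MgCl2 and 3 mM Na-phosphate, remaining activity measured as phosphate released from ATP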
T1 construct: Na^+, K^+-ATPase from pig kidney microsomal membranes was purified by differential centrifugation; from tissue; host or cells: pig kidney microsomal membranes
Experimental: The residual rates of ATP hydrolysis were plotted vs. different drug concentrations and analysed by fitting hyperbolic functions corresponding to a dominant high-affinity component and (where appropriate) a second smaller low-affinity component, and the resulting kinetic parameters were shown in Table 1.
The solid lines represent hyperbolic fits to the inactivation measured after preincubation of the inhibitors with NKA for 2 hours at 37 °C in the presence of Mg^2+ and Pi.
Na^+, K^+-ATPase from pig kidney microsomal membranes was purified by differential centrifugation[27]. […] The inhibitory effects of bufadienolides on NKA were determined essentially as previously reported[9][10].
Preparation and activity assay of Na+,K+-ATPase
Na+,K+-ATPase from pig kidney microsomal membranes was purified by
differential centrifugation.27 The specific Na,K-ATPase activity was determined
from the difference in the amount of phosphate released in the absence and
4 mM MgCl2 and 3 mM ATP. The specific activity of the enzyme preparation
was approximately 30 µmol ATP hydrolysed/mg protein per min at 37°C.27 The
phosphorylation capacity is about 2.9 nmol/mg protein and is equal to the
high-affinity ouabain binding capacity.10, 27
Details of the kinetic analysis of inhibition
The inhibitory effects of bufadienolides on NKA were determined
essentially as previously reported9, 10. In brief, NKA is preincubated at 37 °C for
2 hours in the presence of 3 mM MgCl2, 3 mM Na-phosphate and 40 mM Tris
(pH 7.0) with increasing concentrations of inhibitor. The residual NKA activity is
subsequently determined by 40-fold dilution into a standard ATPase assay
For each inhibitor concentration the
residual activity was determined in two or three independent experiments and
the error bars in Fig. 4 indicate the standard deviation.
(2) Detailed explanation of the kinetic analysis of inhibition
The interaction between bufalins (I) and Na+,K+-ATPase (E) is interpreted as
relatively slow equilibrium.
The binding of I to E is described by a dissociation constant
The conformational change
is described by an equilibrium constant
After equilibrium is attained by preincubation of the enzyme and inhibitor,
the residual Na+,K+-ATPase activity is measured by a 40-fold dilution into the
assay medium for 2 min. It is assumed that the dilution leads to an immediate
dissociation of E•I into E + I, and it is also assumed that the conformational
change E•I ↔ E•I* is slow on the 2-minutes time scale of the functional assay.
The observed decrease in the Na+,K+-ATPase activity is thus an estimate
of the amount of E•I* present at a given inhibitor concentration in the
preincubation media, and the observed concentration dependence of
inactivation is related to Ki as well as KC.

[2] = tested on: Na+,K+-ATPase membranes; assay: 13C CP-MAS SSNMR of NKA membranes with labelled inhibitor (binding-site saturation estimated from Table 1); set-up: species or system pig; details: NKA 13 nmol with 16 nmol inhibitor
Text: We next considered whether the enhanced activity of 5β arises from the additional hydrogen-bonding capacity of the glucose moiety. […] Here we used ^13C cross-polarization magic-angle spinning (CP-MAS) SSNMR to report on the interactions of the glycosidic groups of 5α and 5β with the binding site. […] In Fig. 5 panels C and D are shown ^13C CP-MAS SSNMR spectra of NKA (13 nmol) in the absence of inhibitor (red) and with 5β or 5α (each 16 nmol) (black), respectively. From Table 1 it is estimated that there is 99.5% saturation of the binding site by 5β and about 75% saturation by 5α. For the complex with 5β (Fig. 5C), signals from the inhibitor can clearly be observed around 60–90 ppm; […].
One dimensional proton-decoupled ^13C CP-MAS NMR experiments were performed at −25 °C using a Bruker Avance 400 MHz spectrometer at a magnetic field of 9.3 T equipped with a 4 mm HXY probe and (for 2D measurements on membranes) on a Bruker Avance III 700 MHz instrument with a 3.2 mm HXY probe operating in double-resonance mode. Samples were spun at a MAS rate of 5 kHz in a 4 mm zirconium rotor. […] Two-dimensional DARR spectra of solid inhibitors were recorded at room temperature with a 2-ms contact time at a field of 63 kHz, 83 kHz SPINAL-64 decoupling, […] and a 8-kHz proton field matched to the spinning frequency during a 10-ms mixing time. […]

[3] = KDiss,high, high-affinity component of inhibition curve, preincubation 2 h, 37 °C, Mg2+ and Pi
[4] = KDiss,low, low-affinity component of inhibition curve, reflects ATPase assay medium

Compound: CON[C@@H]1CC[C@@]2(C)[C@H](CC[C@@H]3[C@@H]2CC[C@]2(C)[C@@H](c4ccc(=O)oc4)CC[C@]32O)C1 [Compound 4α]
- KC (equilibrium constant E•I ↔ E•I*) [1]: 9.0
- Kd [1, 3]: 7.26 ± 0.16 µM
- Kd [1, 4]: 524 ± 153 µM
- Ki [1]: 65 µM
- percentage of high-affinity component (Fhigh) [1]: 90%
- percentage of low-affinity component (Flow) [1]: 10%
- ratio of KDiss,high values α-isomer:β-isomer [1]: 145

Compound: CON[C@H]1CC[C@@]2(C)[C@H](CC[C@@H]3[C@@H]2CC[C@]2(C)[C@@H](c4ccc(=O)oc4)CC[C@]32O)C1 [Compound 4β]
- KC (equilibrium constant E•I ↔ E•I*) [1]: 6.14
- Kd [1, 3]: < 0.05 µM
- Kd ([1]; KDiss,low, low-affinity component, value in mM): > 1000 µM
- Ki [1]: ~0.31 µM and 0.31 µM

Compound: CON([C@@H]1CC[C@@]2(C)[C@H](CC[C@@H]3[C@@H]2CC[C@]2(C)[C@@H](c4ccc(=O)oc4)CC[C@]32O)C1)[C@@H]1O[C@H](CO)[C@@H](O)[C@H](O)[C@H]1O [Compound 5α]
- saturation of the binding site [2]: about 75%
- KC (equilibrium constant E•I ↔ E•I*) [1]: 49
- Kd [1, 3]: 39.2 ± 1.5 µM
- Ki [1]: 1920 µM
- percentage of high-affinity component (Fhigh) [1]: 98%
- ratio of KDiss,high values α-isomer:β-isomer [1]: 461

Compound: CON(C1CCC2(C)C(CCC3C2CCC2(C)C(c4ccc(=O)oc4)CCC32O)C1)C1OC(CO)C(O)C(O)C1O (stereo not drawn) [Compound 5β]
- saturation of the binding site [2]: 99.5%
- KC (equilibrium constant E•I ↔ E•I*) [1]: 3.17
- Kd [1, 3]: 0.085 ± 0.01 µM
- Kd [1, 4]: 67.6 ± 38 µM
- Ki [1]: ~0.26 µM and 0.26 µM
- percentage of high-affinity component (Fhigh) [1]: 76%

Compound: C[C@]12CC[C@](O)(C(F)(F)F)C[C@H]1CC[C@@H]1[C@@H]2CC[C@]2(C)[C@@H](c3ccc(=O)oc3)CC[C@]12O [Compound 6α]
- KC (equilibrium constant E•I ↔ E•I*) [1]: 1.86
- Kd [1, 3]: 22.7 ± 1.56 µM
- Kd [1, 4]: 242 ± 35 µM
- Ki [1]: 42.2 µM
- percentage of high-affinity component (Fhigh) [1]: 65%
- percentage of low-affinity component (Flow) [1]: 33%
- ratio of KDiss,high values α-isomer:β-isomer [1]: 6.4

Compound: C[C@]12CC[C@@](O)(C(F)(F)F)C[C@H]1CC[C@@H]1[C@@H]2CC[C@]2(C)[C@@H](c3ccc(=O)oc3)CC[C@]12O [Compound 6β]
- KC (equilibrium constant E•I ↔ E•I*) [1]: 1.78
- Kd [1, 3]: 3.56 ± 0.6 µM
- Kd [1, 4]: 93.5 ± 67 µM
- Ki [1]: 6.3 µM
- percentage of high-affinity component (Fhigh) [1]: 64%
- percentage of low-affinity component (Flow) [1]: 32%

— paper PMC4932606, “Novel stereoselective bufadienolides reveal new insights into the requirements for Na^+, K^+-ATPase inhibition by cardiotonic steroids” (Scientific Reports, 2016)
